Tests used:
[1] = tested on: breast cancer cell line HCC70; assay: CellTiter-Glo Luminescent (CTG) assay, cell activity suppression, breast cancer cell line HCC70; type: cell-based; settings: HCC70, 100 μM or 500 μM, 72 hours, compared to control group (FIG. 5)
[2] = tested on: breast cancer cell line MDA-MB-231; assay: Clonogenic assay, colony formation suppression, breast cancer cell line MDA-MB-231; type: cell-based; settings: MDA-MB-231, 100 μM or 500 μM, 14 days, compared to control group (FIG. 4)

Sequence | suppression of the activity of cancer cells (amount of ATP, CTG assay) [1] | suppression of colony formation (clonogenic assay) [2]
AQTITGKT (Oligopeptide #1 AQTITGKT) [oligopeptide of General Formula A-Q-T-X-T-G-K-T, X is isoleucine] | significant effects on suppression of the colony formation and the activity of cancer cells | significant effects on suppression of the colony formation
AQTLTGKT | significant effects on suppression of the colony formation and the activity of cancer cells | significant effects on suppression of the colony formation

Reference: patent publication US20220204560A1, “NOVEL OLIGOPEPTIDE, AND PHARMACEUTICAL COMPOSITION FOR PREVENTING OR TREATING CANCER, COMPRISING THE SAME AS AN ACTIVE INGREDIENT” (L-BASE CO., LTD., priority 2019, published 2022)
